From patent US9593108B2, “Compounds and methods for antiviral treatment” (PTC Therapeutics, Inc., priority 2009, dated 2017) come the findings set out here.

One assay deals with HCV replicon RNA (GenBank Accession No. AJ242654). As to the kind of experiment: HCV Replicon Assay (replicon RNA reduction and/or Fluc reporter signal). The assay is classed as cell-based, Hepatitis C virus. The settings on record: Hepatitis C virus, 72 h, replicon-containing cells cultured with test compound for up to 3 days. An excerpt: The lack of reliable and readily accessible cell-culture and small animal models permissive for HCV replication has limited the development of new anti-HCV agents. Self-replicating subgenomic HCV systems, termed HCV replicons, have been described and have been widely used to assess the efficacy of anti-HCV inhibitors (see Blight K J, et al., 2000, Efficient initiation of HCV RNA replication in cell culture. Science 290:1972-1974; Blight K J, et al., 2002, Highly permissive cell lines for subgenomic and genomic hepatitis C virus RNA replication. J Virol 76:13001-13014; Ikeda M, et al., 2002. Selectable subgenomic and genome-length dicistronic RNAs derived from an infectious molecular clone of the HCV-N strain of hepatitis C virus replicate efficiently in cultured Huh7 cells. J Virol 76:2997-3006; Lohmann V, et al., 1999, Replication of subgenomic hepatitis C virus RNAs in a hepatoma cell line. Science 285:110-113; Pietschmann T, et al., 2002, Persistent and transient replication of full-length hepatitis C virus genomes in cell culture. J Virol 76:4008-4021; and, Pietschmann T, et al., 2001, Characterization of cell lines carrying self-replicating hepatitis C virus RNAs. J Virol 75:1252-1264).
As described in U.S. Pat. No. 6,630,343, HCV inhibitors are analyzed in the bicistronic replicon by quantitating replicon RNA (GenBank Accession No. AJ242654) reduction and/or the Fluc reporter signal. Replicon-containing cells may be cultured with a test compound of the present invention for up to 3 days. Interferon (IFN) is used as a positive control. In general, the replicon IC50 values shown in Table 1 represent IC50 values determined by replicon RNA reduction.
One may read the IC50 as the concentration at which inhibition is half-maximal. On to `COc1ccc2c(n1)c(C#N)c(-c1ccc(S(=O)(=O)N[C@@H](C)C(F)(F)F)cn1)n2C1CCC1` [Cpd 20, 6-(3-cyano-1-cyclobutyl-5-methoxy-1H-pyrrolo[3,2-b]pyridin-2-yl)-N-[(2S)-1,1,1-trifluoropropan-2-yl]pyridine-3-sulfonamide], for which the IC50 lay within 500 to 2000 nM.
`COc1cnc2c(c1)c(C#N)c(-c1ccc(S(=O)(=O)N[C@@H](C)C(F)(F)F)cn1)n2C1CCC1` [Cpd 22, 6-(3-cyano-1-cyclobutyl-5-methoxy-1H-pyrrolo[2,3-b]pyridin-2-yl)-N-[(2S)-1,1,1-trifluoropropan-2-yl]pyridine-3-sulfonamide] came in with an IC50 of 500 to 2000 nM.
Same read-out and setting: as for `COc1ncc2c(C#N)c(-c3ccc(S(=O)(=O)N[C@@H](C)C(F)(F)F)cn3)n(C3CCC3)c2n1` [Cpd 38, 6-(5-cyano-7-cyclobutyl-2-methoxy-7H-pyrrolo[2,3-d]pyrimidin-6-yl)-N-[(2S)-1,1,1-trifluoropropan-2-yl]pyridine-3-sulfonamide], the figure is less than 500 nM; as for `COc1ncc2c(C#N)c(-c3ccc(S(=O)(=O)N[C@H](C)C(F)(F)F)cn3)n(C3CCC3)c2n1` [Cpd 39, 6-(5-cyano-7-cyclobutyl-2-methoxy-7H-pyrrolo[2,3-d]pyrimidin-6-yl)-N-[(2R)-1,1,1-trifluoropropan-2-yl]pyridine-3-sulfonamide], 2000 to 5000 nM; as for `COc1ccc2c(C#N)c(-c3ccc(S(=O)(=O)NC(CF)CF)cc3)n(C3CCC3)c2n1` [Cpd 43, 4-(3-cyano-1-cyclobutyl-6-methoxy-1H-pyrrolo[2,3-b]pyridin-2-yl)-N-(1,3-difluoropropan-2-yl)benzenesulfonamide], less than 500 nM.
`COc1cnc2c(c1)c(C#N)c(-c1ccc(S(=O)(=O)N[C@H](C)C(F)(F)F)cn1)n2C1CCC1` [Cpd 48, 6-(3-cyano-1-cyclobutyl-5-methoxy-1H-pyrrolo[2,3-b]pyridin-2-yl)-N-[(2R)-1,1,1-trifluoropropan-2-yl]pyridine-3-sulfonamide] showed an IC50 of less than 500 nM.
On the same count and under the same terms, as for `Cc1ccc2c(C#N)c(-c3ccc(S(=O)(=O)N[C@H](C)C(F)(F)F)cc3)n(C3CCC3)c2n1` [Cpd 91, 4-(3-cyano-1-cyclobutyl-6-methyl-1H-pyrrolo[2,3-b]pyridin-2-yl)-N-[(2R)-1,1,1-trifluoropropan-2-yl]benzenesulfonamide], the figure is less than 500 nM; as for `Cc1ccc2c(C#N)c(-c3ccc(S(=O)(=O)N[C@@H](C)C(F)(F)F)cn3)n(C3CCC3)c2n1` [Cpd 92, 6-(3-cyano-1-cyclobutyl-6-methyl-1H-pyrrolo[2,3-b]pyridin-2-yl)-N-[(2S)-1,1,1-trifluoropropan-2-yl]pyridine-3-sulfonamide], less than 500 nM; as for `Cc1ccc2c(C#N)c(-c3ccc(S(=O)(=O)N[C@H](C)C(F)(F)F)cn3)n(C3CCC3)c2n1` [Cpd 93, 6-(3-cyano-1-cyclobutyl-6-methyl-1H-pyrrolo[2,3-b]pyridin-2-yl)-N-[(2R)-1,1,1-trifluoropropan-2-yl]pyridine-3-sulfonamide], less than 500 nM.
Same read-out and setting: to `Cc1ccc2c(C#N)c(-c3ncc(S(=O)(=O)NC(C)C)cn3)n(C3CCC3)c2n1` [Cpd 95, 2-(3-cyano-1-cyclobutyl-6-methyl-1H-pyrrolo[2,3-b]pyridin-2-yl)-N-(propan-2-yl)pyrimidine-5-sulfonamide] belongs 500 to 2000 nM; to `C[C@@H](NS(=O)(=O)c1cnc(-c2c(C#N)c3cc(C4CC4)cnc3n2C2CCC2)nc1)C(F)(F)F` [Cpd 120, 2-(3-cyano-1-cyclobutyl-5-cyclopropyl-1H-pyrrolo[2,3-b]pyridin-2-yl)-N-[(2R)-1,1,1-trifluoropropan-2-yl]pyrimidine-5-sulfonamide], less than 500 nM.

The assay is the same for the next values; noted with them: replicon-containing cells cultured with test compound for up to 3 days.
In turn, “6-(3,6-dicyano-1-cyclobutyl-1H-pyrrolo[2,3-b]pyridin-2-yl)-N-[(2S)-1,1,1-trifluoropropan-2-yl]pyridine-3-sulfonamide [Cpd 241]” had a 50% inhibitory concentration (IC50) of less than 500 nM.
